The source made the active and inactive calls. The calls are words filed in the database; no cut-off is given here.
Legend:
Calf thymus DNA [1] = assay: Binding affinity to calf thymus DNA assessed as hypochromic effect by UV-vis spectrophotometric method relative to control; type: nucleic-acid assay; parameters: concentration or dose not given beside the values; details: Bos taurus
Calf thymus DNA [2] = assay: Binding affinity to calf thymus DNA assessed as change in melting temperature at compound to calf thymus DNA polynucleotide ratio of 0.1 by spectrophotometric analysis; type: nucleic-acid assay; details: Bos taurus
Calf thymus DNA [3] = assay: Binding affinity to calf thymus DNA assessed as conformational change by circular dichroism analysis; type: nucleic-acid assay; details: Bos taurus
[4] = tested on: Poly(dA-dU)oligonucleotide; assay: Binding affinity to polyA-polyU dsRNA (unknown origin) assessed as change in melting temperature at 0.3 ratio of compound to RNA by spectrophotometric analysis; type: nucleic-acid assay
Calf thymus DNA [5] = assay: Binding affinity to calf thymus DNA assessed as change in melting temperature at compound to calf thymus DNA polynucleotide ratio of 0.3 by spectrophotometric analysis; type: nucleic-acid assay; details: Bos taurus
[6] = Binding affinity to polyA-polyU dsRNA (unknown origin) assessed as change in melting temperature at 0.1 ratio of compound to RNA by spectrophotometric analysis; type: nucleic-acid assay
[7] = (§1) Binding affinity to polyA-polyU dsRNA (unknown origin) assessed as binding constant by UV-vis spectrophotometric method; type: nucleic-acid assay
Calf thymus DNA [8] = assay: Binding affinity to calf thymus DNA assessed as change in melting temperature at compound to calf thymus DNA polynucleotide ratio of 0.5 by spectrophotometric analysis; type: nucleic-acid assay; details: Bos taurus
[9] = Binding affinity to polyA-polyU dsRNA (unknown origin) assessed as hypochromic effect by UV-vis spectrophotometric method relative to control; type: nucleic-acid assay; parameters: concentration or dose not given beside the values
[10] = tested on: Poly(dA-dU)oligonucleotide; assay: Binding affinity to polyA-polyU dsRNA (unknown origin) assessed as conformational change by circular dichroism analysis; type: nucleic-acid assay
Trypanosoma brucei = assay: Antitrypanosomal activity against Trypanosoma brucei 221 incubated for 48 hrs by resazurin based fluorescence assay; type: functional, organism-based; details: Trypanosoma brucei, 221, 48 h
[11] = tested on: Poly(dA-dU)oligonucleotide; assay: Binding affinity to polyA-polyU dsRNA (unknown origin) assessed as change in melting temperature at 0.5 ratio of compound to RNA by spectrophotometric analysis; type: nucleic-acid assay
L6 = assay: Cytotoxicity against rat L6 cells incubated for 6 days by resazurin based fluorescence assay; type: cell-based; details: L6, 144 h
Calf thymus DNA [12] = assay: Binding affinity to calf thymus DNA by UV-vis spectrophotometric method; type: nucleic-acid assay; details: Bos taurus
[13] = tested on: Poly(dA-dU)oligonucleotide; assay: as §1; type: nucleic-acid assay
[14] = Ratio of compound concentration to polynucleotide phosphate concentration for binding affinity to polyA-polyU dsRNA (unknown origin); type: nucleic-acid assay
Calf thymus DNA [15] = assay: Ratio of compound concentration to polynucleotide phosphate concentration for binding affinity to calf thymus DNA; type: nucleic-acid assay; details: Bos taurus

| SMILES | Activity (Calf thymus DNA [1]) | ΔTm (Calf thymus DNA [2]) | Activity (Calf thymus DNA [3]) | ΔTm [4] | ΔTm (Calf thymus DNA [5]) | ΔTm [6] | Activity [7] | ΔTm (Calf thymus DNA [8]) | Activity [9] | Activity [10] | IC50 (Trypanosoma brucei) | IC90 (Trypanosoma brucei) | ΔTm [11] | Activity (Calf thymus DNA [12]) | log Ks [13] | Ratio [14] | Ratio (Calf thymus DNA [15]) | log Ks (Calf thymus DNA [12]) | IC50 (L6) |
| --- | --- | --- | --- | --- | --- | --- | --- | --- | --- | --- | --- | --- | --- | --- | --- | --- | --- | --- | --- |
| Cl.Cl.c1cc2[nH]c(-c3ccc(Cn4cc(CCCc5cn(Cc6ccc(-c7nc8cc(C9=NCCN9)ccc8[nH]7)o6)nn5)nn4)o3)nc2cc1C1=NCCN1 | 17% | 13.5 °C | Active | 1.8 °C | 13.8 °C | 1.6 °C | – | 19.1 °C | 32% | Active | 3.9 µM | 5.4 µM | 2.7 °C | – | 6.83 | 0.42 | 0.05 | 7.62 | 216 µM |
| CC(C)NC(=N)c1ccc2[nH]c(-c3ccc(Cn4cc(COc5ccc(OCc6cn(Cc7ccc(-c8nc9cc(C(=N)NC(C)C)ccc9[nH]8)o7)nn6)cc5)nn4)o3)nc2c1.Cl.Cl | 23% | 8 °C | Active | 0 °C | 11 °C | 0 °C | Active | 12.2 °C | 11% | Active | 1.5 µM | 2.8 µM | 0 °C | Active | – | – | – | – | 121 µM |
| Cl.Cl.c1cc2[nH]c(-c3ccc(Cn4cc(COCc5cn(Cc6ccc(-c7nc8cc(C9=NCCN9)ccc8[nH]7)o6)nn5)nn4)o3)nc2cc1C1=NCCN1 | 28% | 12.4 °C | Active | 4 °C | 12.7 °C | 3.5 °C | – | 12.5 °C | 22% | Active | 3.8 µM | 6 µM | – | – | 7.17 | 0.85 | 0.89 | 6.23 | 122 µM |
| Fc1ccc2[nH]c(-c3ccc(Cn4cc(COc5ccc(-c6ccc(OCc7cn(Cc8ccc(-c9nc%10cc(F)ccc%10[nH]9)o8)nn7)cc6)cc5)nn4)o3)nc2c1 | 16% | – | inactive | 0 °C | 0 °C | – | Active | – | 23% | – | > 15 µM | – | – | – | – | – | 0.21 | 4 to 5 | – |

Now those with a lower IC50 (Trypanosoma brucei), led by results:

| Activity (Calf thymus DNA [1]) | ΔTm (Calf thymus DNA [2]) | Activity (Calf thymus DNA [3]) | ΔTm [4] | ΔTm (Calf thymus DNA [5]) | ΔTm [6] | Activity [7] | ΔTm (Calf thymus DNA [8]) | Activity [9] | Activity [10] | IC50 (Trypanosoma brucei) | IC90 (Trypanosoma brucei) | ΔTm [11] | Activity (Calf thymus DNA [12]) | log Ks [13] | Ratio [14] | Ratio (Calf thymus DNA [15]) | log Ks (Calf thymus DNA [12]) | SMILES | IC50 (L6) |
| --- | --- | --- | --- | --- | --- | --- | --- | --- | --- | --- | --- | --- | --- | --- | --- | --- | --- | --- | --- |
| 6% | 8.2 °C | Active | 2.2 °C | 8.9 °C | 2.7 °C | Active | 0 °C | 11% | Active | 0.75 µM | 1.5 µM | 0 °C | Active | – | – | – | – | Cl.Cl.c1cc(OCc2cn(Cc3ccc(-c4nc5cc(C6=NCCN6)ccc5[nH]4)o3)nn2)ccc1OCc1cn(Cc2ccc(-c3nc4cc(C5=NCCN5)ccc4[nH]3)o2)nn1 | 60.7 µM |
| 9% | 9.5 °C | Active | 0 °C | 10.7 °C | 0 °C | Active | 12.3 °C | 7% | Active | 1.3 µM | 5.6 µM | 0 °C | Active | – | – | – | – | Cl.Cl.N=C(N)c1ccc2[nH]c(-c3ccc(Cn4cc(COc5ccc(OCc6cn(Cc7ccc(-c8nc9cc(C(=N)N)ccc9[nH]8)o7)nn6)cc5)nn4)o3)nc2c1 | 39.6 µM |
